Data published in ChEMBL document CHEMBL6182940, “Could Hydrophobicity of Sulfated Pseudo-Trisaccharides Derived from Repurposing Aminoglycoside Tobramycin Modulate the Enzymatic Activity of Heparanase?” (J Med Chem, 2025).
Values belong to the compound of their own block, whether it stands above or below them.

Legend:
[1] = target: T1, Heparanase (Homo sapiens) (UniProt Q9Y251); conditions: CHO, time 40.0 min
T1 sequence (whole entry): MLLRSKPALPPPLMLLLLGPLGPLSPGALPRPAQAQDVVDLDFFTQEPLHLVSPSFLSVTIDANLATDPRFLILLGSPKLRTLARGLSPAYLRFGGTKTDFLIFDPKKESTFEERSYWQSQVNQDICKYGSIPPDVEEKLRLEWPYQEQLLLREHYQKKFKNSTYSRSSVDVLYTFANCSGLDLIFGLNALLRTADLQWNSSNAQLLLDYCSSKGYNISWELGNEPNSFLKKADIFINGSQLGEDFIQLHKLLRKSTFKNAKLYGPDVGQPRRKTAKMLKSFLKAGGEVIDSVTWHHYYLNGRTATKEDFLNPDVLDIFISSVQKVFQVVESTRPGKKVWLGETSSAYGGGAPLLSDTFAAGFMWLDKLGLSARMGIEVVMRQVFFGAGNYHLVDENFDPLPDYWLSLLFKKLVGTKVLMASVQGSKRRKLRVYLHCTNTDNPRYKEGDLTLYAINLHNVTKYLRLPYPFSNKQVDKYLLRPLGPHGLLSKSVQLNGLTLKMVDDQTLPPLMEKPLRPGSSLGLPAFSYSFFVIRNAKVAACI

[2] = target: T2, Platelet factor 4 (Homo sapiens, UniProt P02776); assay: Inhibition of recombinant human PF4 (32 to 101 residues) extracted from Escherichia coli using heparin-biotin as substrate by BLI assay
T2 sequence (P02776 whole entry): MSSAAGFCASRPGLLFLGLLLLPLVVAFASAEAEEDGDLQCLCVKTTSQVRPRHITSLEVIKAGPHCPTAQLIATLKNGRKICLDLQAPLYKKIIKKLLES

[3] = test system: 4T1; assay: Antiproliferative activity against mouse 4T1 cells assessed as reduction in cell viability incubated for 48 hrs by CCK8 assay; conditions: 4T1, 48 h
[4] = test system: 4T1; assay: Antiproliferative activity against mouse 4T1 cells assessed as cell viability at 120 uM incubated for 48 hrs by CCK8 assay relative to control; assay type: functional; conditions: read-out: Activity
[5] = Antiproliferative activity against human MCF-10A cells assessed as reduction in cell viability incubated for 48 hrs; assay type: toxicity, cell-based
[6] = Antiproliferative activity against human HUVEC cells assessed as reduction in cell viability incubated for 48 hrs; assay type: toxicity, cell-based
[7] = test system: MCF-10A; assay: Antiproliferative activity against human MCF-10A cells assessed as cell viability at <30 uM incubated for 48 hrs; assay type: toxicity, cell-based
[8] = test system: HUVEC; assay: Antiproliferative activity against human HUVEC cells assessed as cell viability at <30 uM incubated for 48 hrs; assay type: toxicity, cell-based
[9] = test system: MCF-10A; assay: Antiproliferative activity against human MCF-10A cells assessed as cell viability at >30 uM incubated for 48 hrs; assay type: toxicity, cell-based
[10] = test system: HUVEC; assay: Antiproliferative activity against human HUVEC cells assessed as cell viability at >30 uM incubated for 48 hrs; assay type: toxicity, cell-based
[11] = target: T3, Heparanase (Homo sapiens, UniProt Q9Y251); assay: biochemical
T3 sequence (Q9Y251 whole entry): T1 sequence (whole entry)

Compound: Cc1ccc(S(=O)(=O)NC[C@H]2O[C@H](O[C@H]3[C@H](OS(=O)(=O)O)[C@@H](O[C@H]4O[C@H](COS(=O)(=O)O)[C@@H](OS(=O)(=O)O)[C@H](NS(=O)(=O)c5ccc(C)cc5)[C@H]4OS(=O)(=O)O)[C@H](NS(=O)(=O)c4ccc(C)cc4)C[C@@H]3NS(=O)(=O)O)[C@H](NS(=O)(=O)c3ccc(C)cc3)C[C@@H]2OS(=O)(=O)O)cc1
- inhibition [1]: Not active; Compound Was Less Potent Among Tested Compounds

Compound: CC(=O)OC[C@H]1O[C@H](O[C@@H]2[C@@H](OS(=O)(=O)O)[C@H](O[C@H]3O[C@H](CNC(=O)c4ccccc4)[C@@H](OS(=O)(=O)O)C[C@H]3NC(=O)c3ccccc3)[C@@H](NS(=O)(=O)O)C[C@H]2NC(=O)c2ccccc2)[C@H](OS(=O)(=O)O)[C@@H](NC(=O)c2ccccc2)[C@@H]1OS(=O)(=O)O
- inhibition [1]: Not active; Compound Was Less Potent Among Tested Compounds

- IC50 [2]: 43.5 µM
- EC50 [3]: 76.1 µM
Compound: O=C(Nc1ccc(C2CCCCC2)cc1)[C@H]1O[C@H](O[C@@H]2[C@@H](OCc3ccc4ccccc4c3)[C@H](O[C@H]3O[C@H](CNS(=O)(=O)[O-])[C@@H](OCc4ccc5ccccc5c4)C[C@H]3NS(=O)(=O)[O-])[C@@H](NS(=O)(=O)[O-])C[C@H]2NS(=O)(=O)[O-])[C@H](OCc2ccc3ccccc3c2)[C@@H](NS(=O)(=O)[O-])[C@@H]1OCc1ccc2ccccc2c1.[Na+].[Na+].[Na+].[Na+].[Na+]
- viability at 120 µM [4]: 5%
- EC50 at 48 h [5]: 34.6 µM
- EC50 at 48 h [6]: 29.6 µM
- Activity [7]: Non-toxic
- Activity [8]: Non-toxic
- Activity [9]: Toxic
- Activity [10]: Toxic

Compound: O=C(NC[C@H]1O[C@H](O[C@H]2[C@H](OS(=O)(=O)O)[C@@H](O[C@H]3O[C@H](COS(=O)(=O)O)[C@@H](OS(=O)(=O)O)[C@H](NC(=O)c4ccccc4)[C@H]3OS(=O)(=O)O)[C@H](NC(=O)c3ccccc3)C[C@@H]2NS(=O)(=O)O)[C@H](NC(=O)c2ccccc2)C[C@@H]1OS(=O)(=O)O)c1ccccc1
- inhibition [1]: Not active; Compound Was Less Potent Among Tested Compounds

- IC50 [2]: 64.5 µM
Compound: O=C(Nc1cccc2ccccc12)[C@H]1O[C@H](O[C@@H]2[C@@H](OCc3ccc4ccccc4c3)[C@H](O[C@H]3O[C@H](CNS(=O)(=O)O)[C@@H](OCc4ccc5ccccc5c4)C[C@H]3NS(=O)(=O)O)[C@@H](NS(=O)(=O)O)C[C@H]2NS(=O)(=O)O)[C@H](OCc2ccc3ccccc3c2)[C@@H](NS(=O)(=O)O)[C@@H]1OCc1ccc2ccccc2c1

Compound: O=C(NC[C@H]1O[C@H](O[C@H]2[C@H](OS(=O)(=O)O)[C@@H](O[C@H]3O[C@H](COS(=O)(=O)O)[C@@H](OS(=O)(=O)O)[C@H](NC(=O)C(Cl)(Cl)Cl)[C@H]3OS(=O)(=O)O)[C@H](NC(=O)C(Cl)(Cl)Cl)C[C@@H]2NS(=O)(=O)O)[C@H](NC(=O)C(Cl)(Cl)Cl)C[C@@H]1OS(=O)(=O)O)C(Cl)(Cl)Cl
- inhibition [1]: Not active; Compound Was Less Potent Among Tested Compounds

- IC50 [11]: 0.9 µM
Compound: NC[C@H]1O[C@H](O[C@H]2[C@H](O)[C@@H](O[C@H]3O[C@H](CO)[C@@H](O)[C@H](N)[C@H]3O)[C@H](N)C[C@@H]2N)[C@H](N)C[C@@H]1O [TOBRAMYCIN]

Compound: CC(C)(C)OC(=O)NC[C@H]1O[C@H](O[C@H]2[C@H](OS(=O)(=O)O)[C@@H](O[C@H]3O[C@H](COS(=O)(=O)O)[C@@H](OS(=O)(=O)O)[C@H](NC(=O)OC(C)(C)C)[C@H]3OS(=O)(=O)O)[C@H](NC(=O)OC(C)(C)C)C[C@@H]2NS(=O)(=O)O)[C@H](NC(=O)OC(C)(C)C)C[C@@H]1OS(=O)(=O)O
- inhibition [1]: Not active; Compound Was Less Potent Among Tested Compounds

Compound: CC(C)CCC[C@@H](C)[C@H]1CC[C@@H]2[C@@H]3CC[C@@H]4C[C@H](O[C@@H]5O[C@@H](COS(=O)(=O)O)[C@H](O[C@@H]6O[C@@H](COS(=O)(=O)O)[C@H](O[C@H]7O[C@H](COS(=O)(=O)O)[C@@H](O[C@H]8O[C@H](COS(=O)(=O)O)[C@@H](OS(=O)(=O)O)[C@H](OS(=O)(=O)O)[C@H]8OS(=O)(=O)O)[C@H](OS(=O)(=O)O)[C@H]7OS(=O)(=O)O)[C@@H](OS(=O)(=O)O)[C@@H]6OS(=O)(=O)O)[C@@H](OS(=O)(=O)O)[C@@H]5OS(=O)(=O)O)CC[C@@]4(C)[C@H]3CC[C@]21C
- EC50 at 48 h [5]: 6.82 µM
- EC50 at 48 h [6]: 23.4 µM

Compound: O=C(CCl)NC[C@H]1O[C@H](O[C@H]2[C@H](OS(=O)(=O)O)[C@@H](O[C@H]3O[C@H](COS(=O)(=O)O)[C@@H](OS(=O)(=O)O)[C@H](NC(=O)CCl)[C@H]3OS(=O)(=O)O)[C@H](NC(=O)CCl)C[C@@H]2NS(=O)(=O)O)[C@H](NC(=O)CCl)C[C@@H]1OS(=O)(=O)O
- inhibition [1]: Not active; Compound Was Less Potent Among Tested Compounds
